{"source": "ChEMBL document CHEMBL1201862", "about": "“PubChem BioAssay data set” (2004)", "key": {"[1]": {"molecular_target": "T1, Probable nicotinate-nucleotide adenylyltransferase (Staphylococcus aureus (strain N315), UniProt P65502)", "T1 sequence (P65502 whole entry)": "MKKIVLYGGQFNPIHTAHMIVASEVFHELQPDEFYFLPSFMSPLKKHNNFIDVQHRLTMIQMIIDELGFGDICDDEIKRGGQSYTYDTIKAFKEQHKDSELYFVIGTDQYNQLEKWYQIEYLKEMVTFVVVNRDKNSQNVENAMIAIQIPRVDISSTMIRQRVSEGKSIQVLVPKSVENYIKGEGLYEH", "type": "functional, Staphylococcus aureus subsp. aureus N315"}, "[2]": {"molecular_target": "T1, Probable nicotinate-nucleotide adenylyltransferase", "type": "functional, Staphylococcus aureus subsp. aureus N315", "details": "read-out: IC50_Mean"}, "[3]": {"assay": "HEp-2 cell cytotoxicity, dose response, cytotoxicity control for RSV inhibitor project, HTS (AID 2410)", "type": "functional", "details": "human respiratory syncytial virus"}, "[4]": {"assay": "microbe, parasite or virus in culture", "type": "functional", "details": "Mycobacterium tuberculosis"}, "Vero [5]": {"test_system": "Vero", "assay": "Vero cell cytotoxicity, cytotoxicity control for flavivirus capping enzyme inhibitors (AID 588742)", "type": "functional", "details": "Chlorocebus sabaeus"}, "[6]": {"molecular_target": "Photoreceptor-specific nuclear receptor (Homo sapiens, UniProt Q9Y5X4)", "sequence (Q9Y5X4 whole entry)": "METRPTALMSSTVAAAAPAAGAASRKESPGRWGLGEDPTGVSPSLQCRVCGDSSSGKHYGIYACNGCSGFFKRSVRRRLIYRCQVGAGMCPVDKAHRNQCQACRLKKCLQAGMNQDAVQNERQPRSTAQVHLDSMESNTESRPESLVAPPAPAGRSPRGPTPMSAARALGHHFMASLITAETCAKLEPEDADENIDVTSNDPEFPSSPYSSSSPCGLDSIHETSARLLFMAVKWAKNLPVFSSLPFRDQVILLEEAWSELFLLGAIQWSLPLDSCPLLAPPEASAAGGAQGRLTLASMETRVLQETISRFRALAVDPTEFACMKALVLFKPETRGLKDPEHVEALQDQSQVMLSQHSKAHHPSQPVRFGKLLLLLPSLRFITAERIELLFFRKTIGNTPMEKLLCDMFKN", "type": "functional, cell-based"}, "[7]": {"molecular_target": "T2, Adenosylmethionine-8-amino-7-oxononanoate aminotransferase (Mycobacterium tuberculosis, UniProt P9WQ81)", "T2 sequence (P9WQ81 whole entry)": "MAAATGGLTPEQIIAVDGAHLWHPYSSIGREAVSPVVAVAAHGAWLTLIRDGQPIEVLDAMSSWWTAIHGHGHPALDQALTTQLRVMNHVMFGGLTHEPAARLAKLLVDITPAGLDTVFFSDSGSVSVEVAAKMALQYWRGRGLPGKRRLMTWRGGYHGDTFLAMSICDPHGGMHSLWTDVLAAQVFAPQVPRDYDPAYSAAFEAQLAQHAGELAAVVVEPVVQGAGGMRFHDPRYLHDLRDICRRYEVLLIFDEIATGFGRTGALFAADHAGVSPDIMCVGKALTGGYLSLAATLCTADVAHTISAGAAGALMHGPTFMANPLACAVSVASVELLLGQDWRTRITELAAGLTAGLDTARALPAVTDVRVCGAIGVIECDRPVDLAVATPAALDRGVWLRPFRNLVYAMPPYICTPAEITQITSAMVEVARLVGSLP", "assay": "Mycobacterium tuberculosis BioA enzyme inhibitor Measured in Biochemical System Using Plate Reader - 2163-02_Inhibitor_Dose_CherryPick_Activity.", "type": "functional, Mycobacterium tuberculosis UT205"}, "Genome polyprotein": {"molecular_target": "Genome polyprotein (dengue virus type 2, UniProt P29990)", "sequence (P29990 2492-3391 limits assumed)": "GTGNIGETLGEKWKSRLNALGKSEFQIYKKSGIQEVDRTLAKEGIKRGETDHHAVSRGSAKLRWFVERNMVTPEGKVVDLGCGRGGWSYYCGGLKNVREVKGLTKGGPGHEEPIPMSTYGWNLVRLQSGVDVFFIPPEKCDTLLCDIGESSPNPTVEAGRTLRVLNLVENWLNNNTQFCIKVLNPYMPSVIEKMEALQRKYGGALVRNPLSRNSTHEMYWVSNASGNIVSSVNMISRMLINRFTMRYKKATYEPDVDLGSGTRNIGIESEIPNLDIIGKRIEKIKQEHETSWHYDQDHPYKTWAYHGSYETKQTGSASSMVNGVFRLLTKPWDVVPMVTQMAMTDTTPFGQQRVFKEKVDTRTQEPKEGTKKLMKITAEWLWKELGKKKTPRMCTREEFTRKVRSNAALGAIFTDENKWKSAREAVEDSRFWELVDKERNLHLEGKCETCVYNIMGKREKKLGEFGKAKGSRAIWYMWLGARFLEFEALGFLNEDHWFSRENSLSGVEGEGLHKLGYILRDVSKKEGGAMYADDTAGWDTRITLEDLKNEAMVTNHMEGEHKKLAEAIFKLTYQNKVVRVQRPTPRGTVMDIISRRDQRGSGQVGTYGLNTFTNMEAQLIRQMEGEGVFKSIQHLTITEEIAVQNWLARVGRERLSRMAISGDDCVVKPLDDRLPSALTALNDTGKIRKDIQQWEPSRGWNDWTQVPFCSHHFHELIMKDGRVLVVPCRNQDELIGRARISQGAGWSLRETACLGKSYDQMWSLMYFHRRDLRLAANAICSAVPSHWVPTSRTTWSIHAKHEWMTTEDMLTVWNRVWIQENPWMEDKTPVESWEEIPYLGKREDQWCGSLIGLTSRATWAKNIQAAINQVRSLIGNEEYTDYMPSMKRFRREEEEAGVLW", "assay": "Dengue-2 NS5 methyltransferase inhibitors, primary screen, biochemical, confirmation dose response (AID 588689)", "type": "functional"}, "Protein Wnt-3a": {"molecular_target": "Protein Wnt-3a (Mus musculus, UniProt P27467)", "sequence (P27467 whole entry)": "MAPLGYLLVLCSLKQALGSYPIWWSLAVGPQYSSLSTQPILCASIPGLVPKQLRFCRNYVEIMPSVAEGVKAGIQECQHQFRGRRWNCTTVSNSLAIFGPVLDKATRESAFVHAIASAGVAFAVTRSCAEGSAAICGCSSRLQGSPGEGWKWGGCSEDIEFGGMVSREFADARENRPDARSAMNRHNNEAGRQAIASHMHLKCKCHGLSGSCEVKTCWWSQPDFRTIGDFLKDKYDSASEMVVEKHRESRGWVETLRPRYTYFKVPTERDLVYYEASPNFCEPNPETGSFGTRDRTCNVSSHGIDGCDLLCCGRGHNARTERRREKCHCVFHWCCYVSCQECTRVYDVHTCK", "assay": "Wnt3a-driven reporter signaling inhibition, dose response, selectivity assay for Gli-SUFU antagonist project, Wnt-LIGHT cells, luminescence (AID 651570);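 further: Wnt-LIGHT reporter cells stimulated with conditioned medium from Wnt3a-producing cells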", "type": "functional", "details": "read-out: IC50_Mean"}, "[8]": {"molecular_target": "Glucose-6-phosphate 1-dehydrogenase (Homo sapiens, UniProt P11413)", "sequence (P11413 whole entry)": "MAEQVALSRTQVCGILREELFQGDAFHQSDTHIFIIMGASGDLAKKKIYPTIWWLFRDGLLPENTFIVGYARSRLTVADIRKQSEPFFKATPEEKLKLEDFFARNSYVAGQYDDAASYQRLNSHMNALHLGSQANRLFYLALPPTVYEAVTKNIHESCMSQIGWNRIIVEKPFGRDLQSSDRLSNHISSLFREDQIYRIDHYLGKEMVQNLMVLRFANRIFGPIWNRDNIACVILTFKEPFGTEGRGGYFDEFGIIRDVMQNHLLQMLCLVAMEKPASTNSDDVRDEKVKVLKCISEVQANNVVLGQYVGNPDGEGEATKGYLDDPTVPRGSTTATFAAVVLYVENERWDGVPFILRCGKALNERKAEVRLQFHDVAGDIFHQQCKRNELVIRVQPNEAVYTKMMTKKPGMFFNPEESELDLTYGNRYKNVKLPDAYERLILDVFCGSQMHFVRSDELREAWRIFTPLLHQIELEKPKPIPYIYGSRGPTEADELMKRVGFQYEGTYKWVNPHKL", "assay": "human G6PD enzyme inhibitors, dose response, selectivity assay for P. falciparum G6PD inhibitor project, biochemical, fluorescence (AID 504792)", "type": "functional"}, "Vero [9]": {"test_system": "Vero", "assay": "cells", "type": "functional", "details": "Chlorocebus sabaeus"}, "[10]": {"assay": "HeLa cell cytotoxicity, dose response, cytotoxicity control for MgcRacGAP inhibitor project (AID 624300)", "type": "functional"}, "[11]": {"molecular_target": "T3, Rac GTPase-activating protein 1 (Homo sapiens, UniProt Q9H0H5)", "T3 sequence (Q9H0H5 whole entry)": "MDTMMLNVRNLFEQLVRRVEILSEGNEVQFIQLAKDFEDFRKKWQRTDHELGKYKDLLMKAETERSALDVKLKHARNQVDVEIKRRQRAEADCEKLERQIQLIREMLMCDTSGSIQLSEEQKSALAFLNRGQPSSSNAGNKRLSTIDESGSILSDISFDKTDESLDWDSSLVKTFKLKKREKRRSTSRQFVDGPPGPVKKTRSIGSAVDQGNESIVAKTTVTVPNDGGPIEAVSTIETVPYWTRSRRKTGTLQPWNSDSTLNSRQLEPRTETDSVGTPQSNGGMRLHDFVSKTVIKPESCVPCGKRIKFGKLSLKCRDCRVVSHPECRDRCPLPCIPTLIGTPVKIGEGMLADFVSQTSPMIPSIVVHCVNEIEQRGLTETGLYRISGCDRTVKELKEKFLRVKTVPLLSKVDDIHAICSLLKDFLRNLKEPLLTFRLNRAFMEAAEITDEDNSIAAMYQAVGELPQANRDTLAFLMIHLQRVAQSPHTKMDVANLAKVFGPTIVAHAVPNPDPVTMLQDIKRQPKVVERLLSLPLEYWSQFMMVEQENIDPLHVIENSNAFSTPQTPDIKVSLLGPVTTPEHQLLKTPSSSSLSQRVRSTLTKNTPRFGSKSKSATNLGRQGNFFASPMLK", "assay": "MgcRacGAP GTPase-activating activity inhibitors, confirmation, biochemical, ADP Hunter fluorescence, primary and confirmatory (AID 624330)", "type": "functional"}, "Melanocortin receptor 4": {"molecular_target": "Melanocortin receptor 4 (Homo sapiens, UniProt P32245)", "sequence (P32245 whole entry)": "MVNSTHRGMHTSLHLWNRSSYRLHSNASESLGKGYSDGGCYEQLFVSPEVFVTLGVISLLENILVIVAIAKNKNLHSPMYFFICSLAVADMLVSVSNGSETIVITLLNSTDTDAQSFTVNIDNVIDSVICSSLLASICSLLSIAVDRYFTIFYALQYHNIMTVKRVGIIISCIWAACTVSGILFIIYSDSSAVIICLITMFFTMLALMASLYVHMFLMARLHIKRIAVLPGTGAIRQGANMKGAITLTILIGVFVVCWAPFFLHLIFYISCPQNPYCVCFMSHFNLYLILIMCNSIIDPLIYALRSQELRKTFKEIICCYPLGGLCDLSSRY", "type": "functional, cell-based"}, "[12]": {"molecular_target": "T4, Low molecular weight phosphotyrosine protein phosphatase (Homo sapiens, UniProt P24666)", "T4 sequence (P24666 whole entry)": "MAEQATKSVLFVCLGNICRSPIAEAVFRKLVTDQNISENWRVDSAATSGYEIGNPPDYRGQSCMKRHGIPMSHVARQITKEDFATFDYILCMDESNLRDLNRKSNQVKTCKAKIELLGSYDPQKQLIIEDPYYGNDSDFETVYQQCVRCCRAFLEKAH", "type": "functional", "details": "read-out: IC50_Mean"}}, "note": "Calls of active or inactive are those of the source.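 Wherever EC50 is given: Cell-based assay with luminescence read-out, confirmatory dose-response testing for agonist activity of biased ligands at MC4R; human U2OS cells with tagged receptor and beta-arrestin; potency of agonists that increase receptor coupling to beta-arrestin.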"}
{"smiles": "Cc1ccc2[nH]c(=O)c(CN(CCc3ccccc3)C(c3nnnn3Cc3ccco3)C(C)C)cc2c1", "note": "(stereo not given)", "values": [{"measurement": "IC50", "setting": "[1]", "value": "12.1 µM (active)"}, {"measurement": "IC50", "setting": "[2]", "value": "20 µM (active)"}]}
{"smiles": "Cc1n[nH]c(O)c1C(c1ccc(-c2ccc(Cl)c(Cl)c2)o1)c1c(C)n[nH]c1O", "values": [{"measurement": "CC50", "setting": "[3]", "value": "15.2 µM (active)"}, {"measurement": "CC50", "setting": "[4]", "value": "28.1 µM (active)"}, {"measurement": "CC50", "setting": "Vero [5]", "value": "20.8 µM (active)"}]}
{"smiles": "COc1ccc(NC2c3ccccc3C(=O)N2Cc2ccccc2Cl)cc1OC", "note": "(stereo not given)", "values": [{"measurement": "IC50", "setting": "[6]", "value": "1.5 µM (active)"}]}
{"smiles": "Cc1nc(=O)c(-c2ccccc2)c(C)n1-c1ccc(Br)cc1", "values": [{"measurement": "AC50", "setting": "[7]", "value": "15.6 µM (active)"}]}
{"smiles": "O=C(OC(c1ccccc1)c1nccc2ccccc12)c1ccccc1", "note": "(stereo not given)", "values": [{"measurement": "IC50", "setting": "[6]", "value": "36.1 µM (inactive)"}]}
{"smiles": "CCCCC[C@@H]1C=C(C(=O)O)[C@H](c2ccc(Cl)cc2)N1S(=O)(=O)c1ccc(C)cc1", "values": [{"measurement": "CC50", "setting": "Vero [5]", "value": "> 40 µM (active)"}, {"measurement": "IC50", "setting": "Genome polyprotein", "value": "42.3 µM (active)"}]}
{"smiles": "O=C(N[C@H]1C/C=C\\C[C@@H](CC(=O)N(CCO)Cc2ccccc2)C(=O)N[C@H](Cc2c[nH]c3ccccc23)COC1=O)OCC1c2ccccc2-c2ccccc21", "values": [{"measurement": "IC50", "setting": "Protein Wnt-3a", "value": "17.8 µM (active)"}]}
{"smiles": "CN(C)c1nc(=NCc2cccs2)ss1", "values": [{"measurement": "IC50", "setting": "[8]", "value": "> 80 µM (inactive)"}, {"measurement": "CC50", "setting": "Vero [9]", "value": "19 µM (active)"}, {"measurement": "CC50", "setting": "[10]", "value": "100 µM (active)"}, {"measurement": "IC50", "setting": "[11]", "value": "134 µM (active)"}]}
{"smiles": "C#Cc1ccc([C@H]2C=C(C(=O)NCc3nc4ccccc4[nH]3)O[C@@H](OCc3ccc(CO)cc3)C2)cc1", "values": [{"measurement": "IC50", "setting": "[1]", "value": "10.5 µM (active)"}, {"measurement": "IC50", "setting": "[2]", "value": "20.7 µM (active)"}]}
{"smiles": "COc1cc(NC(=O)Nc2nc(C(N)Cc3ccc(C(F)(F)F)cc3)cs2)cc(OC)c1OC", "note": "(stereo not given)", "values": [{"measurement": "EC50", "setting": "Melanocortin receptor 4", "value": "> 89.2 µM (inactive)"}]}
{"smiles": "COc1ccc(-c2cc(C(=O)Nc3cc(Cl)ccc3O)no2)cc1", "values": [{"measurement": "IC50", "setting": "[12]", "value": "2.91 µM (active)"}]}
{"smiles": "CC(=O)O[C@]1(C(C)=O)CC[C@H]2[C@@H]3C=C(C)C4=CC(=O)CC[C@]4(C)[C@H]3CC[C@@]21C", "note": "[MEGESTROL ACETATE]", "values": [{"measurement": "AC50", "setting": "[7]", "value": "11 µM (active)"}]}
